{"source": "ChEMBL document CHEMBL4373693", "about": "“Virtual Screening Approach and Investigation of Structure-Activity Relationships To Discover Novel Bacterial Topoisomerase Inhibitors Targeting Gram-Positive and Gram-Negative Pathogens” (J Med Chem, 2019)", "key": {"Enterococcus faecalis [1]": {"system": "Enterococcus faecalis", "test": "Antibacterial activity against vancomycin and teicoplanin-resistant Enterococcus faecalis APV 00409 after 16 to 24 hrs by broth microdilution method", "format": "functional"}, "Staphylococcus aureus [2]": {"system": "Staphylococcus aureus", "test": "Antibacterial activity against Staphylococcus aureus BAA-1720 in presence of 50% human serum after 16 to 24 hrs by broth microdilution method", "format": "functional"}, "Staphylococcus aureus [3]": {"system": "Staphylococcus aureus", "test": "Antibacterial activity against Staphylococcus aureus BAA-1720 after 16 to 24 hrs by broth microdilution method", "format": "functional"}, "Enterococcus faecalis [4]": {"system": "Enterococcus faecalis", "test": "Antibacterial activity against Enterococcus faecalis ATCC 29212 after 16 to 24 hrs by broth microdilution method", "format": "functional"}, "Enterococcus faecalis [5]": {"system": "Enterococcus faecalis", "test": "Antibacterial activity against vancomycin-sensitive Enterococcus faecalis APV 00623 after 16 to 24 hrs by broth microdilution method", "format": "functional"}, "Haemophilus influenzae [6]": {"system": "Haemophilus influenzae", "test": "Antibacterial activity against quinolone-sensitive Haemophilus influenzae ATCC 49766 after 16 to 24 hrs by broth microdilution method", "format": "functional"}, "Staphylococcus aureus [7]": {"system": "Staphylococcus aureus", "test": "Antibacterial activity against Staphylococcus aureus ATCC 29213 after 16 to 24 hrs by broth microdilution method", "format": "functional"}, "Enterococcus faecalis [8]": {"system": "Enterococcus faecalis", "test": "Antibacterial activity against vancomycin-sensitive Enterococcus faecalis APV 00406 after 16 to 24 hrs by broth microdilution method", "format": "functional"}, "Enterococcus faecium [9]": {"system": "Enterococcus faecium", "test": "Antibacterial activity against vancomycin and teicoplanin-resistant Enterococcus faecium APV 00422 after 16 to 24 hrs by broth microdilution method", "format": "functional"}, "Enterococcus faecalis [10]": {"system": "Enterococcus faecalis", "test": "Antibacterial activity against vancomycin-sensitive Enterococcus faecalis APV 00404 after 16 to 24 hrs by broth microdilution method", "format": "functional"}, "Enterococcus faecalis [11]": {"system": "Enterococcus faecalis", "test": "Antibacterial activity against vancomycin and teicoplanin-resistant Enterococcus faecalis APV 00408 after 16 to 24 hrs by broth microdilution method", "format": "functional"}, "Enterococcus faecium [12]": {"system": "Enterococcus faecium", "test": "Antibacterial activity against vancomycin and teicoplanin-resistant Enterococcus faecium APV 00424 after 16 to 24 hrs by broth microdilution method", "format": "functional"}, "Enterococcus faecium [13]": {"system": "Enterococcus faecium", "test": "Antibacterial activity against Enterococcus faecium APV 00626 after 16 to 24 hrs by broth microdilution method", "format": "functional"}, "Neisseria gonorrhoeae": {"system": "Neisseria gonorrhoeae", "test": "Antibacterial activity against Neisseria gonorrhoeae ATCC 19424 after 16 to 24 hrs by broth microdilution method", "format": "functional"}, "Enterococcus faecium [14]": {"system": "Enterococcus faecium", "test": "Antibacterial activity against Enterococcus faecium APV 00627 after 16 to 24 hrs by broth microdilution method", "format": "functional"}, "Haemophilus influenzae [15]": {"system": "Haemophilus influenzae", "test": "Antibacterial activity against quinolone-sensitive Haemophilus influenzae H128 after 16 to 24 hrs by broth microdilution method", "format": "functional"}, "Enterococcus faecium [16]": {"system": "Enterococcus faecium", "test": "Antibacterial activity against vancomycin resistant and teicoplanin sensitive Enterococcus faecium APV 00553 after 16 to 24 hrs by broth microdilution method", "format": "functional"}, "Enterococcus faecium [17]": {"system": "Enterococcus faecium", "test": "Antibacterial activity against vancomycin resistant and teicoplanin sensitive Enterococcus faecium APV 00420 after 16 to 24 hrs by broth microdilution method", "format": "functional"}, "Staphylococcus aureus [18]": {"system": "Staphylococcus aureus", "test": "Antibacterial activity against Staphylococcus aureus ATCC 29213 in presence of 50% human serum after 16 to 24 hrs by broth microdilution method", "format": "functional"}, "Klebsiella pneumoniae": {"system": "Klebsiella pneumoniae", "test": "Antibacterial activity against quinolone-sensitive Klebsiella pneumoniae ATCC 700603 after 16 to 24 hrs by broth microdilution method", "format": "functional"}, "Escherichia coli": {"system": "Escherichia coli", "test": "Antibacterial activity against Escherichia coli ATCC 25922 by CLSI method", "format": "functional"}, "[19]": {"test": "Inhibition of Escherichia coli topoisomerase 4 after 24 hrs by ATPase assay"}, "Staphylococcus aureus [20]": {"system": "Staphylococcus aureus", "test": "Antibacterial activity against Staphylococcus aureus", "format": "functional"}, "DNA gyrase": {"target": "DNA gyrase (Escherichia coli, UniProt P0AES4+P0AES6)", "test": "Inhibition of Escherichia coli DNA gyrase assessed as reduction in enzyme-mediated supercoiling of relaxed plasmid by fluorescence polarization assay", "format": "protein-complex assay"}}}
{"smiles": "O=C(O)c1cn(C2CC2)c2cc(N3CCNCC3)c(F)cc2c1=O", "note": "[CIPROFLOXACIN]", "values": [{"measurement": "MIC", "setting": "Enterococcus faecalis [1]", "value": 32, "unit": "µg/mL"}, {"measurement": "MIC", "setting": "Staphylococcus aureus [2]", "value": "> 4", "unit": "µg/mL"}, {"measurement": "MIC", "setting": "Staphylococcus aureus [3]", "value": "4 to 64", "unit": "µg/mL"}, {"measurement": "MIC", "setting": "Enterococcus faecalis [4]", "value": 1, "unit": "µg/mL"}, {"measurement": "MIC", "setting": "Enterococcus faecalis [5]", "value": 2, "unit": "µg/mL"}, {"measurement": "MIC", "setting": "Haemophilus influenzae [6]", "value": 0.015, "unit": "µg/mL"}, {"measurement": "MIC", "setting": "Staphylococcus aureus [7]", "value": "0.25 to 0.5", "unit": "µg/mL"}, {"measurement": "MIC", "setting": "Enterococcus faecalis [8]", "value": 64, "unit": "µg/mL"}, {"measurement": "MIC", "setting": "Enterococcus faecium [9]", "value": 128, "unit": "µg/mL"}, {"measurement": "MIC", "setting": "Enterococcus faecalis [10]", "value": 2, "unit": "µg/mL"}, {"measurement": "MIC", "setting": "Enterococcus faecalis [11]", "value": 64, "unit": "µg/mL"}, {"measurement": "MIC", "setting": "Enterococcus faecium [12]", "value": "> 128", "unit": "µg/mL"}, {"measurement": "MIC", "setting": "Enterococcus faecium [13]", "value": 16, "unit": "µg/mL"}, {"measurement": "MIC", "setting": "Neisseria gonorrhoeae", "value": "≤ 0.06", "unit": "µg/mL"}, {"measurement": "MIC", "setting": "Enterococcus faecium [14]", "value": 4, "unit": "µg/mL"}, {"measurement": "MIC", "setting": "Haemophilus influenzae [15]", "value": 0.008, "unit": "µg/mL"}, {"measurement": "MIC", "setting": "Enterococcus faecium [16]", "value": 128, "unit": "µg/mL"}, {"measurement": "MIC", "setting": "Enterococcus faecium [17]", "value": "> 32", "unit": "µg/mL"}, {"measurement": "MIC", "setting": "Staphylococcus aureus [18]", "value": 0.25, "unit": "µg/mL"}, {"measurement": "MIC", "setting": "Klebsiella pneumoniae", "value": 0.125, "unit": "µg/mL"}]}
{"smiles": "N[C@@H](Cn1c(=O)cnc2ccc(F)cc21)C1CCC(NCc2ncc3c(n2)OCC(=O)N3)CC1", "note": "(some centres undefined)", "values": [{"measurement": "MIC90", "setting": "Escherichia coli", "value": 2, "unit": "µg/mL"}, {"measurement": "IC50", "setting": "[19]", "value": 0.003, "unit": "µM"}, {"measurement": "MIC", "setting": "Staphylococcus aureus [20]", "value": 1, "unit": "µg/mL"}, {"measurement": "IC50", "setting": "DNA gyrase", "value": 0.02, "unit": "µM"}]}
